Data as given in ChEMBL document CHEMBL1138366, “Conformational comparisons of a series of tachykinin peptide analogs” (J Med Chem, 2007).
Residues, ends and D or L forms follow the SMILES beside them.

Target: Substance-P receptor (Rattus norvegicus, UniProt P14600)
Assay: Displacement of [125I]Lys3-substance P from rat NK1 receptor expressed in CHO cells
Type: cell-based

Substance-P receptor, sequence (P14600 whole entry): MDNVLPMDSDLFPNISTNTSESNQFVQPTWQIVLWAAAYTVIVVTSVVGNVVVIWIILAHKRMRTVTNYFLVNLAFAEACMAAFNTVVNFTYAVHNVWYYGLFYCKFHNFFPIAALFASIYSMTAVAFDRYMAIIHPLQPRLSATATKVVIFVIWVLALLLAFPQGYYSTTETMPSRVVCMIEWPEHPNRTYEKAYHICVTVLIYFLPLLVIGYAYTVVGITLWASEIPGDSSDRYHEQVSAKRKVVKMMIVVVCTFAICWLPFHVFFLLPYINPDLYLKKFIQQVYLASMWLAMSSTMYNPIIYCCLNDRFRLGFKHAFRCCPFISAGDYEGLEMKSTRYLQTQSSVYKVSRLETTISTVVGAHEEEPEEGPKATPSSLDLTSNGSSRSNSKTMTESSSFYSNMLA

| Compound | IC50 (read-out: IC50) [nM] | IC50 (read-out: Log IC50 (converted)) [nM] |
| --- | --- | --- |
| CSCC[C@H](NC(=O)[C@H](CC(C)C)NC(=O)CNC(=O)[C@H](Cc1ccccc1)NC(=O)[C@H](Cc1ccccc1)NC(=O)[C@H](CCC(N)=O)NC(=O)[C@H](C)NC(=O)[C@@H]1CCCN1C(=O)[C@H](CCCCN)NC(=O)[C@@H]1CCCN1C(=O)[C@@H](N)CCCNC(=N)N)C(N)=O | 0.7 |  |
| CC[C@H](C)[C@H](NC(=O)[C@H](Cc1ccccc1)NC(=O)[C@H](CO)NC(=O)[C@H](C)NC(=O)[C@@H]1CCCN1C(=O)[C@H](CC(N)=O)NC(=O)[C@@H](N)Cc1cnc[nH]1)C(=O)NCC(=O)N[C@@H](CC(C)C)C(=O)N[C@@H](CCSC)C(N)=O (H-HNPASFIGLM-NH2) |  | 32.4 |
| CSCC[C@H](NC(=O)[C@H](CC(C)C)NC(=O)CNC(=O)[C@H](Cc1ccccc1)NC(=O)[C@H](Cc1ccccc1)NC(=O)[C@H](CCC(N)=O)NC(=O)[C@H](CCC(N)=O)NC(=O)[C@@H]1CCCN1C(=O)[C@H](CCCCN)NC(=O)[C@@H]1CCCN1)C(N)=O (H-PKPQQFFGLM-NH2) | 4.6 |  |

Now from value to compound:

| IC50 (read-out: IC50) [nM] | IC50 (read-out: Log IC50 (converted)) [nM] | Compound |
| --- | --- | --- |
| 4.1 |  | CSCC[C@H](NC(=O)[C@H](CC(C)C)NC(=O)CNC(=O)[C@H](Cc1ccccc1)NC(=O)[C@H](Cc1ccccc1)NC(=O)[C@H](CO)NC(=O)[C@H](CCC(N)=O)NC(=O)[C@@H]1CCCN1C(=O)[C@H](CCCCN)NC(=O)[C@@H]1CCCN1C(=O)[C@@H](N)CCCN=C(N)N)C(N)=O |
| 21 |  | CSCC[C@H](NC(=O)[C@H](CC(C)C)NC(=O)CNC(=O)[C@H](Cc1ccccc1)NC(=O)[C@H](Cc1ccccc1)NC(=O)[C@H](CO)NC(=O)[C@H](C)NC(=O)[C@@H]1CCCN1C(=O)[C@H](CCCCN)NC(=O)[C@@H]1CCCN1C(=O)[C@@H](N)CCCN=C(N)N)C(N)=O (H-RPKPASFFGLM-NH2) |
